Measured values published in patent US20180110762A1, “Compositions Methods for Treating Chronic Kidney Disease” (Merck Sharp & Dohme Corp, priority 2015, published 2018).

Columns and labels:
[1] = biological target: T1, αvβ3 purified from 293 cells overexpressing αvβ3 (Homo sapiens, UniProt P05106+P06756); experiment: SPAV3 binding assay (scintillation proximity)
T1 construct: made in house; host or cells: 293 cells overexpressing αvβ3
Source text: • 1. Wheat germ agglutinin Scintillation Proximity Beads (SPA): Amersham • 2. Octylglucopyranoside: Calbiochem • 3. HEPES: Calbiochem • 4. NaCl: Fisher • 5. CaCl2: Fisher • 6. MgCl2: SIGMA • 7. Phenylmethylsulfonylfluoride (PMSF): SIGMA • 8. Optiplate: PACKARD • 9. (S)-3-(4-(2-(6-aminopyridin-2-yl)ethyl)benzamido)-2-((4-(iodo-^125I)phenyl)sulfonamido)propanoic acid as found in WO0046215 (specific activity 500-1000 Ci/mmole) • 10. Test compound • 11. Purified integrin receptor: αvβ3 was purified from 293 cells overexpressing αvβ3 (Duong et al., J. Bone Min. Res., 8:S378, 1993) according to Pytela (Methods in Enzymology, 144:475, 1987) • 12. Binding buffer: 50 mM HEPES, pH 7.8, 100 mM NaCl, 1 mM Ca^2+/Mg^2+, 0.5 mM PMSF • 13. 50 mM octylglucoside in binding buffer: 50-OG buffer
• 1. Pretreatment of SPA beads: • 500 mg of lyophilized SPA beads were first washed four times with 200 ml of 50-OG buffer and once with 100 ml of binding buffer, and then resuspended in 12.5 ml of binding buffer. • 2. Preparation of SPA beads and receptor mixture • In each assay tube, 2.5 μl (40 mg/ml) of pretreated beads were suspended in 97.5 μl of binding buffer and […] of 50-OG buffer. […] (˜30 ng/μ1) of purified receptor was added to the beads in suspension with stirring at room temperature for 30 minutes. The mixture was then centrifuged at 2,500 rpm in a Beckman GPR Benchtop centrifuge for 10 minutes at 4° C. The pellets were then resuspended in 50 μl of binding buffer and 25 μl of 50-OG buffer. • 3. Reaction • The following were sequentially added into Optiplate in corresponding wells: • (i) Receptor/beads mixture (75 μl) • (ii) 25 μl of each of the following: compound to be tested, binding buffer for total binding or A-8 for non-specific binding (final concentration 1 μM) • (iii) (S)-3-(4-(2-(6-aminopyridin-2-yl)ethyl)benzamido)-2-((4-(iodo-^125I)phenyl)sulfonamido)propanoic acid as found in WO0046215 (specific activity 500-1000 Ci/mmole) in binding buffer (25 μl, final concentration 40 pM) • (iv) Binding buffer (125 μl) • (v) Each plate was sealed with plate sealer from PACKARD and incubated overnight with rocking at 4° C. • 4. Plates were counted using PACKARD TOPCOUNT • 5. % inhibition was calculated as follows: • A=total counts • B=nonspecific counts • C=sample counts
% inhibition=[{(A−B)−(C−B)}/(A−B)]/(A−B)×100

[2] = biological target: T2, Human recombinant integrin α5β1 (Homo sapiens, UniProt P05556+P08648); experiment: Solid phase receptor assay, α5β1 (fibronectin); format: binding
T2 construct: purchased R&D Systems
T2 sequence (P08648 42-995 limits assumed): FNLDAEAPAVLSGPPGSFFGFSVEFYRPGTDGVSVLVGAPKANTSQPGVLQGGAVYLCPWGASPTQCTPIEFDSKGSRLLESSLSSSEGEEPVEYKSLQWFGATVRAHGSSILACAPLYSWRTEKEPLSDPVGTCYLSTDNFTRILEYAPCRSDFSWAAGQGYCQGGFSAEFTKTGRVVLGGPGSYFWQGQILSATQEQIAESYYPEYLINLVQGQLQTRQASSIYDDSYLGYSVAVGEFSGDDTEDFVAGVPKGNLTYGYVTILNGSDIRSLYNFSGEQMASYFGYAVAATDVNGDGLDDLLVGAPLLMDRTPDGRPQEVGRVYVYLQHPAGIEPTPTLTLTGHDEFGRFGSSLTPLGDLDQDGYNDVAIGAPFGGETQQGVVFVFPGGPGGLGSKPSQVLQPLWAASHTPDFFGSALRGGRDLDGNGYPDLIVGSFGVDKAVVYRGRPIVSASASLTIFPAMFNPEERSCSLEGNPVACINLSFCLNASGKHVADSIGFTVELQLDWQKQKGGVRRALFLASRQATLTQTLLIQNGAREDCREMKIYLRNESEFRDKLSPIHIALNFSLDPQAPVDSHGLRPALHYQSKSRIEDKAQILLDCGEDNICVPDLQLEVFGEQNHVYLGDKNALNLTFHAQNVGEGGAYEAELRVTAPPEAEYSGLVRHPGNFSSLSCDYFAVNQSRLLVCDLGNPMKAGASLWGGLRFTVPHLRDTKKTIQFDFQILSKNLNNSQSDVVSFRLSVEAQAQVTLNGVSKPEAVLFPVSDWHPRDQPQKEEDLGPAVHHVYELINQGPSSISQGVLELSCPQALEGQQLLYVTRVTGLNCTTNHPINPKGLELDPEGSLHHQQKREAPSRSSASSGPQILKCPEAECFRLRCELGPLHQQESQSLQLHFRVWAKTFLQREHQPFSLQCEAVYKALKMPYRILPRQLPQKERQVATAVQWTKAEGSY
T2 sequence (P05556 21-728 limits assumed): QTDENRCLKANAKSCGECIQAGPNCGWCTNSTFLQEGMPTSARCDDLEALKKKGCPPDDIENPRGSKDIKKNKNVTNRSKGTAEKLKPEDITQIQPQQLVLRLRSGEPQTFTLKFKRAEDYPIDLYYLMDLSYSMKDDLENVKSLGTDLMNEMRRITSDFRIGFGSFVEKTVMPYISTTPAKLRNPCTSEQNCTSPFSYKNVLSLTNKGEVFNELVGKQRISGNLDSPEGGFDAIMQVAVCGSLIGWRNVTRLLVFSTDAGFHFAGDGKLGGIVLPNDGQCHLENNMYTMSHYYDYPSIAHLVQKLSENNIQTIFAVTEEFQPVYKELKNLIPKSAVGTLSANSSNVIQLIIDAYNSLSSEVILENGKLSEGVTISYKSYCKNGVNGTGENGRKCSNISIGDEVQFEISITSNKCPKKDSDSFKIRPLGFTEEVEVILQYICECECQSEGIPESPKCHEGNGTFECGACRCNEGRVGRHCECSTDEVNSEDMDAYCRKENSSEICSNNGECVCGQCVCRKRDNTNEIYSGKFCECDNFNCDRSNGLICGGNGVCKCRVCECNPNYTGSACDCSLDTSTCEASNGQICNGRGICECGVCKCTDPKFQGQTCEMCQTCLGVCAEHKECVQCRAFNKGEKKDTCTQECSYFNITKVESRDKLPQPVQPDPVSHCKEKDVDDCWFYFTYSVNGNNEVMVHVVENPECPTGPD
Protocol: The assay was performed according to the method described in International Patent Publication WO 2014/015054 A1 “Beta Amino Acid Derivatives As Integrin Antagonists.” Briefly, 96-well plates were coated overnight with purified fibronectin or vitronectin (R&D Systems) in TBS+ buffer (25 mM Tris 7.4, 137 mM NaCl, 2.7 mM KCl, 1 mM CaCl2, 1 mM MgCl2, 1 mM MnCl2). Compound A was added at different concentrations to recombinant human integrin proteins (R&D Systems) reconstituted in TBS+/0.1% bovine serum albumin, and 50 μL of this mixture were added to the empty wells of the coated plate and incubated for 1-2 hours. After 3 washes, 50 μL of biotinylated antibody (R&D Systems) in TBS+/0.1% bovine serum albumin were added. The procedure continued with three more washes, addition of 50 μL of streptavidin-conjugated horseradish peroxidase (R&D Systems), and incubation for 20 minutes. After 3 more washes, 50 μL of tetramethylbenzidine (TMB) substrate (SIGMA) were added and plates were read after 20 min by colorimetric detection at 650 nm wavelength in an EnVision Multilabel Plate Reader (Perkin Elmer). The concentrations of fibronectin used were: 2 μg/mL for the α5β1 assay and 5 μg/mL for the αvβ1 assay. The concentrations of vitronectin used were: 1 μg/mL for the αvβ3 assay and 0.25 μg/mL for the αvβ5 assay. […]

human podocytes = experiment: Oris cell migration assay, podocyte motility, Compound A alone, vitronectin coated plate; format: cell-based; settings: for % migrated cells vs control cells: 48 h, VN plate
Protocol: The effects of Compound A on podocyte motility were evaluated using Oris cell migration assay kit in 96-well plates (coated with either vitronectin or fibronectin). The Oris™ Cell Migration Assay is designed with a unique cell seeding stopper or biocompatible gel, detection mask, and stopper tool. These unique plate designs generate highly reproducible results using a microscope, digital imaging system. 7 to 10-day differentiated human podocytes (100 ul of 50,000 cells/ml) were seeded in each well of the ORIS plate. After sitting at room temperature for about 15 minutes, the plate was placed into 37° C. incubator and podocytes were incubated with complete podocyte medium for 24 h. Stoppers from each well (keeping stoppers in 4 wells which were served as time zero control) were carefully removed, medium discarded, and fresh (10% FBS) podocyte medium added to each well. Podocytes were pretreated with Compound A (10 uM to 0.01 nM) for 2 h prior to puromycin animonucleoside (PAN, 30 ug/ml or 15 ug/ml) treatment. Podocytes were then treated with PAN in the presence or absence of Compound A at different concentrations (ranging from 10 uM to 0.01 nM) in 10% FBS medium for 48 h. Podocytes were then fixed with 4% paraformaldehyde in PBS for 30 minutes (adding 50 ul to each well). After discarding the fixative, podocytes were stained with Hoechst 33342 (stock […] working concentration at 5 uM) for 30 min. Podocytes were then washed with PBS three times. Finally, after adding 100 ul of PBS to each well, plate was sealed with a black cover and kept at 4° C. until image analysis. Images of podocyte motility were captured using Acumen eX3 (manufacturer TTP Labtech Ltd. address: Melbourn Science Park, Melbourn, Hertfordshire SG8 6EE, United Kingdom).
Effect of Compound A (“A”) alone on human podocyte motility was examined using Oris cell migration assay in vitronectin (VN) coated-96-well plate.

T1 sequence (P06756 31-889 limits assumed): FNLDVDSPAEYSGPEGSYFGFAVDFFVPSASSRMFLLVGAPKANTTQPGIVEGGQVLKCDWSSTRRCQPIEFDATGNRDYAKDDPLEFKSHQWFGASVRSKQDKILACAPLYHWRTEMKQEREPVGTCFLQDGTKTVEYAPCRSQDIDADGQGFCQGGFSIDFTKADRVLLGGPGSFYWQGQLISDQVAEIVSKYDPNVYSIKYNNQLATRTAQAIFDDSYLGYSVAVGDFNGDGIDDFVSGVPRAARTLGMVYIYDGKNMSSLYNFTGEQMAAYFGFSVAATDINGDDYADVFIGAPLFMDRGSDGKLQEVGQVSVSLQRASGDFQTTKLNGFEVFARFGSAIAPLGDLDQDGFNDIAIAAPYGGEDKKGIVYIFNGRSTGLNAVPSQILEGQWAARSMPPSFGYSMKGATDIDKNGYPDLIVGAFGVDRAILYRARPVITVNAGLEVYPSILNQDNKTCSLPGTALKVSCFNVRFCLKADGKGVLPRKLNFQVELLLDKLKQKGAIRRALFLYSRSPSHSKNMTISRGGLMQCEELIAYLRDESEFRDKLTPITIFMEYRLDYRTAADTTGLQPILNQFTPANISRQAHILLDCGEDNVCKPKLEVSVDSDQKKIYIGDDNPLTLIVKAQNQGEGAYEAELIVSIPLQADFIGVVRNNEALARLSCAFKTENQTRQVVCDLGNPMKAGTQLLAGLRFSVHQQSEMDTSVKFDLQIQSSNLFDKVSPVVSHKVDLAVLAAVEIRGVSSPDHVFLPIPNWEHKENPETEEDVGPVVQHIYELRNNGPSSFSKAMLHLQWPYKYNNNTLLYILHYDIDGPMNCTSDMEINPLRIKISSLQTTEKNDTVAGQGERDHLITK
T1 sequence (P06756 891-1048 partner limits assumed): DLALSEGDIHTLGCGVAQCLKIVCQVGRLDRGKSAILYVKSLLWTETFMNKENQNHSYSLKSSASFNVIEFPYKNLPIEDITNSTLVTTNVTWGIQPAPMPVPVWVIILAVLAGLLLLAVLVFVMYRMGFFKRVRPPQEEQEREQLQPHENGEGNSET
T1 sequence (P05106 27-788): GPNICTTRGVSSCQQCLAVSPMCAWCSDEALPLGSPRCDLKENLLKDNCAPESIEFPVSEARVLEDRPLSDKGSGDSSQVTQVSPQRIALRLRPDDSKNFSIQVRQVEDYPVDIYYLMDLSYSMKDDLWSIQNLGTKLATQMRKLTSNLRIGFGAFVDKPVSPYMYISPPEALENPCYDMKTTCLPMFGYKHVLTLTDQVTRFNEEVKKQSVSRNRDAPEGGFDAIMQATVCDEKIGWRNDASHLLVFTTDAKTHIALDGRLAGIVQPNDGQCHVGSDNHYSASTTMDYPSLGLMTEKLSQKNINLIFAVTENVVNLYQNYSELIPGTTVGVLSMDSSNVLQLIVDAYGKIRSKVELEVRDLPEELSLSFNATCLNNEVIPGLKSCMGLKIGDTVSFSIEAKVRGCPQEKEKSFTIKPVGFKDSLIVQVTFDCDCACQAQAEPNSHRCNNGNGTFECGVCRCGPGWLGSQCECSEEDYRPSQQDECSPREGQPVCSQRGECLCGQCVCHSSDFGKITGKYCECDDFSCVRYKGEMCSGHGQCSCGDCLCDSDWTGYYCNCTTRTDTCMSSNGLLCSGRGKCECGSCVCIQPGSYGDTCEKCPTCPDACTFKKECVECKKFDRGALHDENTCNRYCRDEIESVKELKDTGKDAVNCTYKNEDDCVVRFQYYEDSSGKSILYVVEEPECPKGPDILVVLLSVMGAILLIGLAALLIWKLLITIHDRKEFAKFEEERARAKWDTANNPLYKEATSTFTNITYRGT

IC50 [1]: 0.1 nM
IC50 ([2]; α5β1, first of two experiments): 4.9 nM
IC50 ([2]; α5β1, second of two experiments): 19.6 nM
SMILES: COc1ccc([C@H](CC(=O)O)N2CCN(CCCc3ccc4c(n3)NCCC4)C2=O)cn1 [Compound A, 3-{2-Oxo-3-[3-(5,6,7,8-tetrahydro-[1,8]naphthyridin-2-yl)-propyl]imidazolidin-1-yl}-3 (S)-(6-methoxy-pyridin-3-yl)-propionic acid]
human podocyte motility, Compound A alone vs vehicle (human podocytes; 48 hours, vitronectin coated plate): significant inhibition of motility in a dose-dependent manner
% migrated cells vs control cells (human podocytes; A alone 0.01 nM): 39.7%
% migrated cells vs control cells (human podocytes; A alone 0.0316 nM): 43.7%
% migrated cells vs control cells (human podocytes; A alone 0.1 nM): 38.8%
% migrated cells vs control cells (human podocytes; A alone 0.316 nM): 38.6%
% migrated cells vs control cells (human podocytes; A alone 1 nM): 33.4%
% migrated cells vs control cells (human podocytes; A alone 3.16 nM): 30.6%
% migrated cells vs control cells (human podocytes; A alone 10 nM): 19.2%
% migrated cells vs control cells (human podocytes; A alone 100 nM): 20.5%
% migrated cells vs control cells (human podocytes; A alone 1 uM): 17.9%
% migrated cells vs control cells (human podocytes; A alone 10 uM): 17.9%
